Laboratory results: patent US20210290597A1, “METHOD OF TREATING A CONDITION ASSOCIATED WITH NEURODEGENERATION USING INHIBITORS OF OAT3” (Neuropore Therapies, Inc., priority 2018, published 2021)

What was measured:
[1] = target: T1, human transporter URAT1 (Homo sapiens, UniProt Q96S37); assay: In vitro transport assay 2, URAT1; type: cell-based; details: 20 μM [14C]-uric acid
T1 construct: expressed in transfected cells; host or cells: MDCK-II
T1 sequence (Q96S37 1-553): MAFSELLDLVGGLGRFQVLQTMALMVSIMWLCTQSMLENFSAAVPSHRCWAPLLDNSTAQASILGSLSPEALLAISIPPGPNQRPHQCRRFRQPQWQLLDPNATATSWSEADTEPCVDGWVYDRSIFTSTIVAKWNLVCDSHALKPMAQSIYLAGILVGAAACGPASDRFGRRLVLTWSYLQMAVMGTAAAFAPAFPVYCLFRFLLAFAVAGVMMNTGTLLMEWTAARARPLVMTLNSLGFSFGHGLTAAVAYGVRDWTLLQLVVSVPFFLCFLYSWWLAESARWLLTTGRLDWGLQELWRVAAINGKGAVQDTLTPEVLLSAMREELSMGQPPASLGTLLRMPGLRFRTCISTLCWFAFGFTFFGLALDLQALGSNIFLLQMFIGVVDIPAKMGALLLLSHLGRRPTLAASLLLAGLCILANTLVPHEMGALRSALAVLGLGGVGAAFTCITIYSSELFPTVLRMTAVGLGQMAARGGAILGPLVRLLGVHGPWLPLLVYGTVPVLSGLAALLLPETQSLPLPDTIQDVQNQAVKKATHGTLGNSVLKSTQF
Protocol: Compound 1 was studied in the concentration range of 0.1-10 μM for its potency against transport mediated by various transporter proteins.

[2] = target: T2, human transporter OATP1B3 (Homo sapiens, UniProt Q9NPD5); assay: In vitro ion transport assay 1, OATP1B3; type: cell-based; details: probe substrate 2 μM [3H]-CCK-8
T2 construct: expressed in transfected cells; host or cells: MDCK-II
T2 sequence (Q9NPD5 1-702): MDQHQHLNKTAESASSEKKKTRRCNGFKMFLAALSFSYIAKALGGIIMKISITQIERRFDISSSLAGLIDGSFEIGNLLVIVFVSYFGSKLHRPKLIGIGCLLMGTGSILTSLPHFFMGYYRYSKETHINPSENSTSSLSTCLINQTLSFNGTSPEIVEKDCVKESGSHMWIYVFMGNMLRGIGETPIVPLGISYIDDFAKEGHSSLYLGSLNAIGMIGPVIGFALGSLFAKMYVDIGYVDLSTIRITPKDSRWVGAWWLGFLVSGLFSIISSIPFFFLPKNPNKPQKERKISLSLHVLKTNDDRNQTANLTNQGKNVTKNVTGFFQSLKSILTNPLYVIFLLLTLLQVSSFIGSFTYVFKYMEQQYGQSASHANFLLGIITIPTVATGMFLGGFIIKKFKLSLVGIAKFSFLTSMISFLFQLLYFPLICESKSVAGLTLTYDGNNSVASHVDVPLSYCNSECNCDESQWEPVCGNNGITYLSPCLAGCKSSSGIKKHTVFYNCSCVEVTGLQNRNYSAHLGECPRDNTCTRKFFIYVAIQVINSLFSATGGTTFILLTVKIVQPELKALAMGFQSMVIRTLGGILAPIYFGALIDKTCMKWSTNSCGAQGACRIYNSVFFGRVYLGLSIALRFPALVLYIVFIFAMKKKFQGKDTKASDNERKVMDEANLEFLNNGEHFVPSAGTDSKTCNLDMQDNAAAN
Protocol: (§1) Compound 1 was studied in the concentration range of 0.1-100 μM for its potency against transport mediated by various transporter proteins. [table]

[3] = tested on: microtubule-associated protein 1A/1B-light chain 3 (LC3); assay: LC3 immunolabeling, L61 ASYN transgenic mice, 1 month study; type: in vivo; details: 1, 5 or 10 mg/kg per day i.p.
Protocol: Multiple in vivo administration studies of Compound 1 were carried out in the Line 61 (L61) mThy1-alpha-synuclein transgenic mouse model of Parkinson's disease (PD). The mThy1-alpha-synuclein transgenic mouse model overexpresses wild-type human ASYN under the Thy-1 promoter (commonly referred to as Line 61 transgenic mice; Rockenstein et al., 2002). This transgenic mouse develops extensive accumulation of alpha-synuclein (ASYN) in areas relevant to PD (Rockenstein et al., 2002; Chesselet et al., 2012; Games et al., 2013), neurodegeneration including dopaminergic neurodegeneration, reduced dopamine (DA) and TH loss in the striatum (Masliah et al., 2000; Lam et al., 2011), and motor deficits (Fleming et al., 2004). […]
Alpha-synuclein (ASYN) is a neuronal protein whose dysregulation has been implicated in the pathogenesis of PD. The effects of Compound 1 on alpha-synuclein aggregation were assessed in both L61 ASYN transgenic and non-transgenic mice in a 1 month administration study. […] At the end of one month, the mice were sacrificed, and immunohistochemical (IHC) detection of total alpha-synuclein deposits, insoluble alpha-synuclein deposits (PK+resistant), microtubule-associated protein 1A/1B-light chain 3 (LC3), and monomeric alpha-synuclein levels were assessed in the harvested brain tissues.

[4] = target: T3, human transporter OATP1B1 (Homo sapiens, UniProt Q9Y6L6); assay: In vitro ion transport assay 1, OATP1B1; type: cell-based; details: probe substrate 2 μM [3H]-estradiol-17β-D-glucuronide
T3 construct: expressed in transfected cells; host or cells: MDCK-II
T3 sequence (Q9Y6L6 1-691): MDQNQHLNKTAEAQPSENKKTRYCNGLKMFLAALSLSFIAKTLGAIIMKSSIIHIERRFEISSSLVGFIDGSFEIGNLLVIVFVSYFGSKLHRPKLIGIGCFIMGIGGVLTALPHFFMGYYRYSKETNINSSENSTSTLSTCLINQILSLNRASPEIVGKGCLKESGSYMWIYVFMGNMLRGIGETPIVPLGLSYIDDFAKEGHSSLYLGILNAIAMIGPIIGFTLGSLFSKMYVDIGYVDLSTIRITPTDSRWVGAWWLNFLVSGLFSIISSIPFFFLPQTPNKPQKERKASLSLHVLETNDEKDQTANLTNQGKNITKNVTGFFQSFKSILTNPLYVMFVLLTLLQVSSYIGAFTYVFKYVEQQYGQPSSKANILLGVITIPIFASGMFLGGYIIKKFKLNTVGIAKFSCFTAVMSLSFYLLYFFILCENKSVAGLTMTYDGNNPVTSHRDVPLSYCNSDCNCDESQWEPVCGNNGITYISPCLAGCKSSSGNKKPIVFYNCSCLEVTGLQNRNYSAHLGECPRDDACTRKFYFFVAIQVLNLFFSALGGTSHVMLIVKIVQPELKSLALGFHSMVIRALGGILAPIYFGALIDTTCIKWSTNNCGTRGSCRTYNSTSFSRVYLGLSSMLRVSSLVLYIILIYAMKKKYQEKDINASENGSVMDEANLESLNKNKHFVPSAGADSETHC
Protocol: as §1

O=S(=O)(c1ccc(-n2cn[nH]c2=S)cc1)c1ccc(Cl)c(C(F)(F)F)c1 [Compound 1, 4-(4-((4-chloro-3-(trifluoromethyl)phenyl)sulfonyl)phenyl)-2,4-dihydro-3H-1,2,4-triazole-3-thione]
IC50 [1]: > 10 µM
IC50 [2]: 51.2 µM
levels of LC3 immunolabeling in cortex and striatum [3]: increased
IC50 [4]: 14.6 µM
